In patent US20170312681A1, “PROCESS AND APPARATUS FOR SEPARATING ENTRAINED AMINES FROM A GAS STREAM” (Carbonoro B.V., priority 2014, published 2017):

Assay: amine content of the aqueous phase after heat-induced phase separation of an aqueous MCA/DMCA mixture
Conditions: 3 M MCA:DMCA 1:3 wt./wt. in water
Procedure: The phases were separated and the aqueous phase was analysed for determining the amine content.

Which results are given for `CNC1CCCCC1` [MCA, N-methylcyclohexylamine]?
MCA in aqueous phase (heated 24 h at 40 ° C.): 6940 mg/L; MCA in aqueous phase (heated 24 h at 50 ° C.): 5630 mg/L; MCA in aqueous phase (heated 24 h at 60 ° C.): 5090 mg/L; MCA in aqueous phase (heated 24 h at 70 ° C.): 4520 mg/L
